Key:
COS-7 cells = assay: β-galactosidase enzyme assay, transfection of COS-7 cells; assay type: cell-based, Green Monkey; conditions: COS-7, same pDNA:Mu1:liposome ratio as optimal for ND7
Procedure: COS cells were seeded at a density of 60-80% confluence in 24 well culture dishes 24 hrs prior to transfection. Immediately prior to transfection, cells were washed in serum-free media Incubating pCMVβ with Mu1 prior to the addition of the cationic liposome DC-Chol/DOPE formed complexes capable of cellular transfection. In each case 1 μg pCMVβ was complexed with 12 μg Mu1 peptide that had been found optimal for ND7 cells. The pCMVβ:Mu1 complexes were then mixed with 3, 4 and 6 μg DC-Chol/DOPE. COS cells were exposed to transfection complexes for 2 hours then maintained at 37° C., 5% CO2 for another 24 hrs before being harvested and processed for β-galactosidase enzyme assay. Numbers represent means±SD, n=3.
COS-7 cells (derived from Green Monkey kidney) were grown in RPMI 1640 media (BRL) supplemented with 10% fetal bovine serum (BRL) and 100 IU/mL penicillin/streptomycin (BRL).
In order to see whether improved transfections could be achieved in other cell types we performed a similar analysis on COS-7 cells. […] The same ratio of pDNA:Mu1:liposome optimal for ND7 cells was best for COS-7, cells. A similar degree of improvement was also seen (3.7 fold) over cationic liposomes alone.

HeLa cells = assay: β-galactosidase assay, alternative cationic peptides in HeLa cells; assay type: cell-based, human; conditions: DC-Chol:DOPE liposome:peptide:DNA 12:0.6:1, 30 min, DNA 1.0 μg/ml
Procedure: In order to examine the effects of various alternative cationic peptides on transfection activities, a series of liposome:cationic peptide:DNA complexes were prepared and their relative transfection abilities analysed in vitro. The peptides used were poly-lysine hydrochloride (average molecular weight 3970, Sigma), poly arginine hydrochloride (average molecular weight 11800, Sigma) a peptide derived from protein V, pV (p5, sequence shown below), a peptide analogue of Mu1 (V, sequence shown below) and Mu1 peptide itself. The p5 peptide and V peptide were synthesized using the same solid-phase peptide synthesis methodology as was used to prepare Mu1 peptide.
Each peptide was combined with cationic liposome (DC-Chol:DOPE 3:2 m/m) and DNA (pCMVβ) in the liposome:peptide:DNA ratio of 12:0.6:1 (w/w/w) as described in Example 4. The transfection activities were examined using HeLa cells (human epithelial cells). The cells were seeded at an approximate density of 5×10^4 per well in a 24-well culture plate in DMEM supplemented with 10% FCS and grown for 24 h in the presence of 5% CO2 at 37° C. Cells were washed by brief exposure to DMEM and then treated with solutions containing LMD or LD complexes, prediluted with OPTIMEM (Gibco) (final DNA concentration 1.0 μg/ml in all cases), for 30 min. Cells were then washed again and incubated for a further 48 h in DMEM supplemented with 10% FCS prior to harvesting. The level of β-galactosidase enzyme activity was determined with a standard assay kit (chemiluminescent, Roche).

Substance: H-MRRAHHRRRRASHRRMRGG-OH [Mu1]
- improvement over cationic liposomes alone (COS-7 cells): 3.7 fold
- transfection activity compared to poly lysine and poly arginine complexes (HeLa cells): excellent transfection activity
